Laboratory results reported in patent US10092606B2, “Synbiotic mixture” (Nestec S.A., priority 2006, dated 2018).

Biological target: toxin A from C. difficile (Clostridioides difficile, UniProt P16154)
Assay: Protection of T84 monolayers against C. difficile toxin A (transepithelial electrical resistance)
Format: cell-based, Clostridium difficile
Conditions: T84 cells; prebiotic in combination with the same probiotic strains; fructooligosaccharides 20 g/l, galactooligosaccharides 20 g/l, sialyllactose 10 g/l; compared with preparations of the invention; FIG. 2

Sequence of toxin A from C. difficile (P16154 whole entry, looked up): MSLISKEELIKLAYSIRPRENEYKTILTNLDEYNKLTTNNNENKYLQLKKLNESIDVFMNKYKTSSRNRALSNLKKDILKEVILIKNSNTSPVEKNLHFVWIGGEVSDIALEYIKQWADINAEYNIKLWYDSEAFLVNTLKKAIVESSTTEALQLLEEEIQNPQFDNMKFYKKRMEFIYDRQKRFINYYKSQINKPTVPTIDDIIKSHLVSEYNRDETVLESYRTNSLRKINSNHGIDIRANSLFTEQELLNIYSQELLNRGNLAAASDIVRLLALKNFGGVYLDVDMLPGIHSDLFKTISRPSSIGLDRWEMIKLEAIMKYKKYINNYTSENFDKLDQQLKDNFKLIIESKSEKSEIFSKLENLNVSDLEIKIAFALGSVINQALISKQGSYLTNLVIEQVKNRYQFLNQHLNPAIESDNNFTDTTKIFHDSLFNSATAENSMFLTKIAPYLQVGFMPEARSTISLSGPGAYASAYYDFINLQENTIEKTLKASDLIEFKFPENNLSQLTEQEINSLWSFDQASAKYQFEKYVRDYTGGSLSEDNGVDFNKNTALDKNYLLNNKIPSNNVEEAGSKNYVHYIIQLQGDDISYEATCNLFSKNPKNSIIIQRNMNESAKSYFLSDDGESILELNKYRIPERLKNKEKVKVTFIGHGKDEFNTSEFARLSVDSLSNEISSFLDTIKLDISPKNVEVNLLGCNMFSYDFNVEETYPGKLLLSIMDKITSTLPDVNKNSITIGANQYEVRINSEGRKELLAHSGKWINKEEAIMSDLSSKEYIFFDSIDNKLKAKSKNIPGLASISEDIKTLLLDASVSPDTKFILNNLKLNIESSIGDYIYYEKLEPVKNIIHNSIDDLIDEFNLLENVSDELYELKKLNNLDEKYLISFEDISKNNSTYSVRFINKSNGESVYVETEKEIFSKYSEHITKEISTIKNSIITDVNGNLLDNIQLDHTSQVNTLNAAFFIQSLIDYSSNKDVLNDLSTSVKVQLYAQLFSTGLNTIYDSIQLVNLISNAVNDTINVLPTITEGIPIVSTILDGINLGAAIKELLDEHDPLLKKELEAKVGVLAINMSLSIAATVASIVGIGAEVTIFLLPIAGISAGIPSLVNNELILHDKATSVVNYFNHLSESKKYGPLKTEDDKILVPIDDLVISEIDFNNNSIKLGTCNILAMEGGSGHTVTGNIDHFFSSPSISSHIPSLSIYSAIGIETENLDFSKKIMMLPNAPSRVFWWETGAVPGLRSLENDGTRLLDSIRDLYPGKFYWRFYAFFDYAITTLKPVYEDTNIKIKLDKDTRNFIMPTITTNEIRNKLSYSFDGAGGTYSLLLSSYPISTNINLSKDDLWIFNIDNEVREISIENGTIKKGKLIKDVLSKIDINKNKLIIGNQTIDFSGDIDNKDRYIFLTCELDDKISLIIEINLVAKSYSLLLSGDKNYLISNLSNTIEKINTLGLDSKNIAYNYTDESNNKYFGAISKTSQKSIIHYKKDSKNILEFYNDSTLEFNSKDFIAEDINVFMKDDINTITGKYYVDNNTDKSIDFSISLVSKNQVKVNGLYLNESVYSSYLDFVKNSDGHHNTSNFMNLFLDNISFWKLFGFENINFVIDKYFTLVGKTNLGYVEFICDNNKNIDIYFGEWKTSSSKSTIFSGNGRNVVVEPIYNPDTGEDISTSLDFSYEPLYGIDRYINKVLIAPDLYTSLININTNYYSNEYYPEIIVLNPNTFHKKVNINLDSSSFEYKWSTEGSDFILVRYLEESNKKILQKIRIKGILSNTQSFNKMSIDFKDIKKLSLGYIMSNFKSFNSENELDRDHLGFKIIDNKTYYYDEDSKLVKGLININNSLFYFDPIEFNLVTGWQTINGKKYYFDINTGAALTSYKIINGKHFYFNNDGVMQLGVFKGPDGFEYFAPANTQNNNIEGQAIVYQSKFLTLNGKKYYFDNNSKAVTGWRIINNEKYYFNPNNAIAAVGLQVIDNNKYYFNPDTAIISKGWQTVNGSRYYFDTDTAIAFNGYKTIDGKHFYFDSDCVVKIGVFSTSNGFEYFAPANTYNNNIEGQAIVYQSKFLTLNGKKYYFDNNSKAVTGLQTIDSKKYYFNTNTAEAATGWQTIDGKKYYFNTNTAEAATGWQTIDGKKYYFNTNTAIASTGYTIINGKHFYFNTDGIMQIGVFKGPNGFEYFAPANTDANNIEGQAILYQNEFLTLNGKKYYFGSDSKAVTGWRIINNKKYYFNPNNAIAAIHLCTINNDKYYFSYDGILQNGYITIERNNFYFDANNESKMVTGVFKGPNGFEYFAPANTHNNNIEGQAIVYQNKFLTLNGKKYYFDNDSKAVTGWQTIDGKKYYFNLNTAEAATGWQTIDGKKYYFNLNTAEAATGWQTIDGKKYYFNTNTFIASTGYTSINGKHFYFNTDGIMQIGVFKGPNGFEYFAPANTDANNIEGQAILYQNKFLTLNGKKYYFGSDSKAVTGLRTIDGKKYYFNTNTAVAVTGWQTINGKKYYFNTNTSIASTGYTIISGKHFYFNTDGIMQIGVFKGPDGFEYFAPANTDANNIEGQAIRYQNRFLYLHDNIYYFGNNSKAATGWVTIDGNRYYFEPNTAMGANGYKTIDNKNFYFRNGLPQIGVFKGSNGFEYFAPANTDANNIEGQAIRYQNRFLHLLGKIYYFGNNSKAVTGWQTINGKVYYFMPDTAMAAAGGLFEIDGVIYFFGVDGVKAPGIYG

In the case of sialyllactose, the “effect against C. difficile toxin A (TER, normalized protection score)” value is reported as “a comparable effect was not achieved”.
